ChEMBL document CHEMBL3885881, “DrugMatrix”

Species: Rattus norvegicus
Test: DrugMatrix - Regimen: Daily Repeat
Assay type: toxicity, organism-based, Sprague-Dawley
Design: regimen Daily Repeat, gender Male, age 6-8 weeks
Conditions: in vivo, po, route oral GAVAGE, vehicle 100 % WATER; for BASOPHIL / EOSINOPHIL / ERYTHROCYTE COUNT / HEMATOCRIT / HEMOGLOBIN / LEUKOCYTE COUNT / LYMPHOCYTE / MEAN CORPUSCULAR HEMOGLOBIN / MEAN CORPUSCULAR HEMOGLOBIN CONCENTRATION / MEAN CORPUSCULAR VOLUME / MONOCYTE / NEUTROPHIL / PLATELET COUNT: tissue Blood; for ALANINE AMINOTRANSFERASE / ALBUMIN / ALKALINE PHOSPHATASE / ASPARTATE AMINOTRANSFERASE / BLOOD UREA NITROGEN / CARBON DIOXIDE / CHLORIDE / CHOLESTEROL / CREATINE PHOSPHOKINASE / CREATININE / GLUCOSE / LACTATE DEHYDROGENASE / LIPASE / PHOSPHORUS / POTASSIUM / SODIUM / TOTAL BILIRUBIN / TOTAL PROTEIN / URIC ACID: tissue Plasma
[1] = 0 mg/kg, 96 h, dose level Control, time 4 day
[2] = 0 mg/kg, […], dose level Control, time 6 day
[3] = 0 mg/kg, […], dose level Control, time 14 day
[4] = […], 96 h, dose 1.6 mg/Kg, dose level High, time 4 day
[5] = […], dose 1.6 mg/Kg, dose level High, time 6 day
[6] = […], dose 1.6 mg/Kg, dose level High, time 14 day

## O=[Se](=O)([O-])[O-].[Na+].[Na+] [SODIUM SELENATE]
[1]
  BASOPHIL: 0.47%
  EOSINOPHIL: 0.58%
  ERYTHROCYTE COUNT: 6.84 x10E6/uL
  HEMATOCRIT: 44.27%
  HEMOGLOBIN: 14.08 G/DL
  LEUKOCYTE COUNT: 13.39 x10E3/uL
  LYMPHOCYTE: 83.57%
  MEAN CORPUSCULAR HEMOGLOBIN: 20.57 pg
  MEAN CORPUSCULAR HEMOGLOBIN CONCENTRATION: 31.77 G/DL
  MEAN CORPUSCULAR VOLUME: 64.68 fL
  MONOCYTE: 1.92%
  NEUTROPHIL: 12.95%
  PLATELET COUNT: 1533.67 x10E3/uL
  ALANINE AMINOTRANSFERASE: 28.17 u/L
  ALBUMIN: 3.82 G/DL
  ALKALINE PHOSPHATASE: 354.33 u/L
  ASPARTATE AMINOTRANSFERASE: 73.83 u/L
  BLOOD UREA NITROGEN: 16 mg/dL
  CARBON DIOXIDE: 27.17 mmol/L
  CHLORIDE: 104.83 MEQ/L
  CHOLESTEROL: 83.33 mg/dL
  CREATINE PHOSPHOKINASE: 288 u/L
  CREATININE: 0.33 mg/dL
  GLUCOSE: 181.33 mg/dL
  LACTATE DEHYDROGENASE: 173.17 u/L
  LIPASE: 17.67 u/L
  PHOSPHORUS: 11.5 mg/dL
  POTASSIUM: 6.8 MEQ/L
  SODIUM: 147 MEQ/L
  TOTAL BILIRUBIN: 0.35 mg/dL
  TOTAL PROTEIN: 6.35 G/DL
  URIC ACID: 1.55 mg/dL
[2]
  BASOPHIL: 0.33%
  EOSINOPHIL: 0.85%
  ERYTHROCYTE COUNT: 6.98 x10E6/uL
  HEMATOCRIT: 38.58%
  HEMOGLOBIN: 14.25 G/DL
  LEUKOCYTE COUNT: 11.01 x10E3/uL
  LYMPHOCYTE: 85.07%
  MEAN CORPUSCULAR HEMOGLOBIN: 20.47 pg
  MEAN CORPUSCULAR HEMOGLOBIN CONCENTRATION: 31.45 G/DL
  MEAN CORPUSCULAR VOLUME: 64.9 fL
  MONOCYTE: 1.9%
  NEUTROPHIL: 11.42%
  PLATELET COUNT: 1289.67 x10E3/uL
  ALANINE AMINOTRANSFERASE: 28.17 u/L
  ALBUMIN: 3.78 G/DL
  ALKALINE PHOSPHATASE: 385.33 u/L
  ASPARTATE AMINOTRANSFERASE: 78 u/L
  BLOOD UREA NITROGEN: 16.83 mg/dL
  CARBON DIOXIDE: 26.67 mmol/L
  CHLORIDE: 106.83 MEQ/L
  CHOLESTEROL: 82.67 mg/dL
  CREATINE PHOSPHOKINASE: 225.5 u/L
  CREATININE: 0.27 mg/dL
  GLUCOSE: 179.5 mg/dL
  LACTATE DEHYDROGENASE: 98.33 u/L
  LIPASE: 14.67 u/L
  PHOSPHORUS: 12.28 mg/dL
  POTASSIUM: 7.03 MEQ/L
  SODIUM: 150.33 MEQ/L
  TOTAL BILIRUBIN: 0.38 mg/dL
  TOTAL PROTEIN: 6.45 G/DL
  URIC ACID: 1.6 mg/dL
[3]
  BASOPHIL: 0.52%
  EOSINOPHIL: 0.55%
  ERYTHROCYTE COUNT: 7.72 x10E6/uL
  HEMATOCRIT: 51.87%
  HEMOGLOBIN: 15.32 G/DL
  LEUKOCYTE COUNT: 16.2 x10E3/uL
  LYMPHOCYTE: 85.13%
  MEAN CORPUSCULAR HEMOGLOBIN: 19.85 pg
  MEAN CORPUSCULAR HEMOGLOBIN CONCENTRATION: 29.52 G/DL
  MEAN CORPUSCULAR VOLUME: 67.17 fL
  MONOCYTE: 1.7%
  NEUTROPHIL: 11.6%
  PLATELET COUNT: 1104.17 x10E3/uL
  ALANINE AMINOTRANSFERASE: 37 u/L
  ALBUMIN: 4.13 G/DL
  ALKALINE PHOSPHATASE: 342 u/L
  ASPARTATE AMINOTRANSFERASE: 71 u/L
  BLOOD UREA NITROGEN: 16.5 mg/dL
  CARBON DIOXIDE: 28.17 mmol/L
  CHLORIDE: 104 MEQ/L
  CHOLESTEROL: 70.67 mg/dL
  CREATINE PHOSPHOKINASE: 287.67 u/L
  CREATININE: 0.38 mg/dL
  GLUCOSE: 150.17 mg/dL
  LACTATE DEHYDROGENASE: 81.33 u/L
  LIPASE: 16 u/L
  PHOSPHORUS: 11.32 mg/dL
  POTASSIUM: 6.22 MEQ/L
  SODIUM: 147.33 MEQ/L
  TOTAL BILIRUBIN: 0.43 mg/dL
  TOTAL PROTEIN: 6.55 G/DL
  URIC ACID: 1.38 mg/dL
[4]
  BASOPHIL: 0.33%
  EOSINOPHIL: 0.73%
  ERYTHROCYTE COUNT: 6.6 x10E6/uL
  HEMATOCRIT: 40.23%
  HEMOGLOBIN: 12.93 G/DL
  LEUKOCYTE COUNT: 11.54 x10E3/uL
  LYMPHOCYTE: 85%
  MEAN CORPUSCULAR HEMOGLOBIN: 19.6 pg
  MEAN CORPUSCULAR HEMOGLOBIN CONCENTRATION: 32.13 G/DL
  MEAN CORPUSCULAR VOLUME: 60.97 fL
  MONOCYTE: 1.8%
  NEUTROPHIL: 11.6%
  PLATELET COUNT: 1460.67 x10E3/uL
  ALANINE AMINOTRANSFERASE: 31.33 u/L
  ALBUMIN: 3.73 G/DL
  ALKALINE PHOSPHATASE: 296.67 u/L
  ASPARTATE AMINOTRANSFERASE: 69.67 u/L
  BLOOD UREA NITROGEN: 16 mg/dL
  CARBON DIOXIDE: 24 mmol/L
  CHLORIDE: 107.67 MEQ/L
  CHOLESTEROL: 75.33 mg/dL
  CREATINE PHOSPHOKINASE: 411.33 u/L
  CREATININE: 0.4 mg/dL
  GLUCOSE: 170.67 mg/dL
  LACTATE DEHYDROGENASE: 107.33 u/L
  LIPASE: 18 u/L
  PHOSPHORUS: 11.1 mg/dL
  POTASSIUM: 6.2 MEQ/L
  SODIUM: 148.33 MEQ/L
  TOTAL BILIRUBIN: 0.4 mg/dL
  TOTAL PROTEIN: 6.2 G/DL
  URIC ACID: 1.3 mg/dL
[5]
  BASOPHIL: 0.27%
  EOSINOPHIL: 0.3%
  ERYTHROCYTE COUNT: 7.08 x10E6/uL
  HEMATOCRIT: 44.53%
  HEMOGLOBIN: 14.1 G/DL
  LEUKOCYTE COUNT: 12.82 x10E3/uL
  LYMPHOCYTE: 83.7%
  MEAN CORPUSCULAR HEMOGLOBIN: 19.97 pg
  MEAN CORPUSCULAR HEMOGLOBIN CONCENTRATION: 31.7 G/DL
  MEAN CORPUSCULAR VOLUME: 62.9 fL
  MONOCYTE: 2.23%
  NEUTROPHIL: 13.07%
  PLATELET COUNT: 1297.33 x10E3/uL
  ALANINE AMINOTRANSFERASE: 33 u/L
  ALBUMIN: 4.03 G/DL
  ALKALINE PHOSPHATASE: 331 u/L
  ASPARTATE AMINOTRANSFERASE: 80 u/L
  BLOOD UREA NITROGEN: 16.33 mg/dL
  CARBON DIOXIDE: 23.67 mmol/L
  CHLORIDE: 108.67 MEQ/L
  CHOLESTEROL: 74.67 mg/dL
  CREATINE PHOSPHOKINASE: 413 u/L
  CREATININE: 0.37 mg/dL
  GLUCOSE: 182.67 mg/dL
  LACTATE DEHYDROGENASE: 123 u/L
  LIPASE: 8 u/L
  PHOSPHORUS: 12.5 mg/dL
  POTASSIUM: 6.73 MEQ/L
  SODIUM: 151.67 MEQ/L
  TOTAL BILIRUBIN: 0.37 mg/dL
  TOTAL PROTEIN: 6.83 G/DL
  URIC ACID: 1.77 mg/dL
[6]
  BASOPHIL: 0.42%
  EOSINOPHIL: 0.92%
  ERYTHROCYTE COUNT: 8.04 x10E6/uL
  HEMATOCRIT: 52.44%
  HEMOGLOBIN: 15.34 G/DL
  LEUKOCYTE COUNT: 13.75 x10E3/uL
  LYMPHOCYTE: 84.4%
  MEAN CORPUSCULAR HEMOGLOBIN: 19.12 pg
  MEAN CORPUSCULAR HEMOGLOBIN CONCENTRATION: 29.26 G/DL
  MEAN CORPUSCULAR VOLUME: 65.28 fL
  MONOCYTE: 2.18%
  NEUTROPHIL: 11.62%
  PLATELET COUNT: 1231.6 x10E3/uL
  ALANINE AMINOTRANSFERASE: 40.4 u/L
  ALBUMIN: 4.2 G/DL
  ALKALINE PHOSPHATASE: 262.8 u/L
  ASPARTATE AMINOTRANSFERASE: 72.4 u/L
  BLOOD UREA NITROGEN: 16.4 mg/dL
  CARBON DIOXIDE: 27.4 mmol/L
  CHLORIDE: 104.4 MEQ/L
  CHOLESTEROL: 63.8 mg/dL
  CREATINE PHOSPHOKINASE: 181 u/L
  CREATININE: 0.42 mg/dL
  GLUCOSE: 154.8 mg/dL
  LACTATE DEHYDROGENASE: 91 u/L
  LIPASE: 11.6 u/L
  PHOSPHORUS: 11.26 mg/dL
  POTASSIUM: 6.38 MEQ/L
  SODIUM: 148.4 MEQ/L
  TOTAL BILIRUBIN: 0.4 mg/dL
  TOTAL PROTEIN: 6.72 G/DL
  URIC ACID: 1.52 mg/dL
